Experimental data published in patent publication US20230085307A1, “PYRIDAZINONE COMPOUND AND HERBICIDE” (NISSAN CHEMICAL CORPORATION, priority 2019, published 2023).

Experiments:
barnyard grass [1] = test: Test Example 3: herbicidal effect by foliage application, Wagner pot (Table 18, symbol H); format: in vivo, barnyard grass (Echinochloa crus-galli)
Outline: (§1)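 Plants were sown in alluvial soil held under 0.1–0.5 cm standing water and grown 14 days in a greenhouse at 25–30 °C. An emulsifiable formulation, water-diluted to the set dose, was then sprayed onto the foliage, and effects were scored three weeks later using previously defined criteria.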

Chinese sprangletop = test: Test Example 3: herbicidal effect by foliage application, Wagner pot (Table 18, symbol D); format: in vivo, chinese sprangletop (Leptochloa chinensis)
Outline: as §1

rice flat sedge = test: Test Example 3: herbicidal effect by foliage application, Wagner pot (Table 18, symbol E); format: in vivo, rice flat sedge (Cyperus iria)
Outline: as §1

southern crabgrass [2] = test: Test Example 4: herbicidal effect by soil treatment (Table 19, symbol F); format: in vivo, southern crabgrass (Digitaria ciliaris)
Outline: (§2)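 Applied as a water-diluted emulsion, the compound was sprayed onto soil covering newly sown seeds. Evaluation came three weeks after application, in a greenhouse held at 25° C. to 30° C.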

green foxtail [3] = test: Test Example 4: herbicidal effect by soil treatment (Table 19, symbol G); format: in vivo, green foxtail (Setaria viridis)
Outline: as §2

barnyard grass [4] = test: Test Example 4: herbicidal effect by soil treatment (Table 19, symbol H); format: in vivo, barnyard grass (Echinochloa crus-galli)
Outline: as §2

wild oat [5] = test: Test Example 4: herbicidal effect by soil treatment (Table 19, symbol I); format: in vivo, wild oat (Avena fatua)
Outline: as §2

blackgrass [6] = test: Test Example 4: herbicidal effect by soil treatment (Table 19, symbol J); format: in vivo, blackgrass (Alopecurus myosuroides)
Outline: as §2

Italian ryegrass [7] = test: Test Example 4: herbicidal effect by soil treatment (Table 19, symbol K); format: in vivo, Italian ryegrass (Lolium multiflorum)
Outline: as §2

windgrass [8] = test: Test Example 4: herbicidal effect by soil treatment (Table 19, symbol L); format: in vivo, windgrass (Apera spica-venti)
Outline: as §2

velvetleaf [9] = test: Test Example 4: herbicidal effect by soil treatment (Table 19, symbol M); format: in vivo, velvetleaf (Abutilon theophrasti)
Outline: as §2

redroot pigweed [10] = test: Test Example 4: herbicidal effect by soil treatment (Table 19, symbol N); format: in vivo, redroot pigweed (Amaranthus retroflexus)
Outline: as §2

lambsquarters [11] = test: Test Example 4: herbicidal effect by soil treatment (Table 19, symbol O); format: in vivo, lambsquarters (Chenopodium album)
Outline: as §2

chickweed [12] = test: Test Example 4: herbicidal effect by soil treatment (Table 19, symbol P); format: in vivo, common chickweed (Stellaria media)
Outline: as §2

persian speedwell [13] = test: Test Example 4: herbicidal effect by soil treatment (Table 19, symbol R); format: in vivo, Persian speedwell (Veronica persica)
Outline: as §2

southern crabgrass [14] = test: Test Example 5: herbicidal effect by foliage application, plastic box (Table 20, symbol F); format: in vivo, southern crabgrass (Digitaria ciliaris); conditions: evaluated three weeks after application
Outline: (§3)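 Sow seeds spot-wise in sterilized diluvial soil; cover with ~1.5 cm soil. Grow 14 days in greenhouse, 25° C. to 30° C. Spray foliage with emulsion diluted to predetermined amount. Rate effect after 3 weeks.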

green foxtail [15] = test: Test Example 5: herbicidal effect by foliage application, plastic box (Table 20, symbol G); format: in vivo, green foxtail (Setaria viridis); conditions: evaluated three weeks after application
Outline: as §3

barnyard grass [16] = test: Test Example 5: herbicidal effect by foliage application, plastic box (Table 20, symbol H); format: in vivo, barnyard grass (Echinochloa crus-galli); conditions: evaluated three weeks after application
Outline: as §3

wild oat [17] = test: Test Example 5: herbicidal effect by foliage application, plastic box (Table 20, symbol I); format: in vivo, wild oat (Avena fatua); conditions: evaluated three weeks after application
Outline: as §3

blackgrass [18] = test: Test Example 5: herbicidal effect by foliage application, plastic box (Table 20, symbol J); format: in vivo, blackgrass (Alopecurus myosuroides); conditions: evaluated three weeks after application
Outline: as §3

Italian ryegrass [19] = test: Test Example 5: herbicidal effect by foliage application, plastic box (Table 20, symbol K); format: in vivo, Italian ryegrass (Lolium multiflorum); conditions: evaluated three weeks after application
Outline: as §3

windgrass [20] = test: Test Example 5: herbicidal effect by foliage application, plastic box (Table 20, symbol L); format: in vivo, windgrass (Apera spica-venti); conditions: evaluated three weeks after application
Outline: as §3

velvetleaf [21] = test: Test Example 5: herbicidal effect by foliage application, plastic box (Table 20, symbol M); format: in vivo, velvetleaf (Abutilon theophrasti); conditions: evaluated three weeks after application
Outline: as §3

redroot pigweed [22] = test: Test Example 5: herbicidal effect by foliage application, plastic box (Table 20, symbol N); format: in vivo, redroot pigweed (Amaranthus retroflexus); conditions: evaluated three weeks after application
Outline: as §3

lambsquarters [23] = test: Test Example 5: herbicidal effect by foliage application, plastic box (Table 20, symbol O); format: in vivo, lambsquarters (Chenopodium album); conditions: evaluated three weeks after application
Outline: as §3

chickweed [24] = test: Test Example 5: herbicidal effect by foliage application, plastic box (Table 20, symbol P); format: in vivo, common chickweed (Stellaria media); conditions: evaluated three weeks after application
Outline: as §3

persian speedwell [25] = test: Test Example 5: herbicidal effect by foliage application, plastic box (Table 20, symbol R); format: in vivo, Persian speedwell (Veronica persica); conditions: evaluated three weeks after application
Outline: as §3

[26] = amount of applied herbicide 320 g/ha
[27] = amount of applied herbicide 320 g/ha, foliage application after 14-day growth
[28] = amount of applied herbicide 221 g/ha

Structure (SMILES): CSc1ccc(-c2sc3c(Cl)cccc3c2-c2c(O)c(C)nn(C)c2=O)cc1 [4-088]
- herbicidal effect on barnyard grass (H) (barnyard grass [1]; 320 g/ha): 5 (Herbicidal rate of 90% or more (almost completely withered))
- herbicidal effect on Chinese sprangletop (D) (Chinese sprangletop; 320 g/ha): 3 (Herbicidal rate of 40% or more and less than 70%)
- herbicidal effect on rice flat sedge (E) (rice flat sedge; 320 g/ha): 5 (Herbicidal rate of 90% or more (almost completely withered))
- Herbicidal effect by soil treatment, F: southern crabgrass (southern crabgrass [2]; [26]): 0 (Herbicidal rate of 5% or less (almost no effect))
- Herbicidal effect by soil treatment, G: green foxtail (green foxtail [3]; [26]): 0 (Herbicidal rate of 5% or less (almost no effect))
- Herbicidal effect by soil treatment, H: barnyard grass (barnyard grass [4]; [26]): 0 (Herbicidal rate of 5% or less (almost no effect))
- Herbicidal effect by soil treatment, I: wild oat (wild oat [5]; [26]): 0 (Herbicidal rate of 5% or less (almost no effect))
- Herbicidal effect by soil treatment, J: blackgrass (blackgrass [6]; [26]): 0 (Herbicidal rate of 5% or less (almost no effect))
- Herbicidal effect by soil treatment, K: Italian ryegrass (Italian ryegrass [7]; [26]): 3 (Herbicidal rate of 40% or more and less than 70%)
- Herbicidal effect by soil treatment, L: windgrass (windgrass [8]; [26]): 0 (Herbicidal rate of 5% or less (almost no effect))
- Herbicidal effect by soil treatment, M: velvetleaf (velvetleaf [9]; [26]): 0 (Herbicidal rate of 5% or less (almost no effect))
- Herbicidal effect by soil treatment, N: redroot pigweed (redroot pigweed [10]; [26]): 5 (Herbicidal rate of 90% or more (almost completely withered))
- Herbicidal effect by soil treatment, O: lambsquarters (lambsquarters [11]; [26]): 4 (Herbicidal rate of 70% or more and less than 90%)
- Herbicidal effect by soil treatment, P: chickweed (chickweed [12]; [26]): 0 (Herbicidal rate of 5% or less (almost no effect))
- Herbicidal effect by soil treatment, R: persian speedwell (persian speedwell [13]; [26]): 3 (Herbicidal rate of 40% or more and less than 70%)
- Herbicidal effect by foliage application, F: southern crabgrass (southern crabgrass [14]; [27]): 0 (Herbicidal rate of 5% or less (almost no effect))
- Herbicidal effect by foliage application, G: green foxtail (green foxtail [15]; [27]): 2 (Herbicidal rate of 20% or more and less than 40%)
- Herbicidal effect by foliage application, H: barnyard grass (barnyard grass [16]; [27]): 3 (Herbicidal rate of 40% or more and less than 70%)
- Herbicidal effect by foliage application, I: wild oat (wild oat [17]; [27]): 4 (Herbicidal rate of 70% or more and less than 90%)
- Herbicidal effect by foliage application, J: blackgrass (blackgrass [18]; [27]): 2 (Herbicidal rate of 20% or more and less than 40%)
- Herbicidal effect by foliage application, K: Italian ryegrass (Italian ryegrass [19]; [27]): 4 (Herbicidal rate of 70% or more and less than 90%)
- Herbicidal effect by foliage application, L: windgrass (windgrass [20]; [27]): 5 (Herbicidal rate of 90% or more (almost completely withered))
- Herbicidal effect by foliage application, M: velvetleaf (velvetleaf [21]; [27]): 5 (Herbicidal rate of 90% or more (almost completely withered))
- Herbicidal effect by foliage application, N: redroot pigweed (redroot pigweed [22]; [27]): 5 (Herbicidal rate of 90% or more (almost completely withered))
- Herbicidal effect by foliage application, O: lambsquarters (lambsquarters [23]; [27]): 5 (Herbicidal rate of 90% or more (almost completely withered))
- Herbicidal effect by foliage application, P: chickweed (chickweed [24]; [27]): 5 (Herbicidal rate of 90% or more (almost completely withered))
- Herbicidal effect by foliage application, R: persian speedwell (persian speedwell [25]; [27]): 5 (Herbicidal rate of 90% or more (almost completely withered))

Structure (SMILES): Cc1ccc2sc(-c3ccc(C#N)cc3)c(-c3c(O)c(C)nn(C)c3=O)c2c1 [2-146]
- herbicidal effect on H: barnyard grass (barnyard grass [1]; [28]): 4 (Herbicidal rate of 70% or more and less than 90%)
- herbicidal effect on D: Chinese sprangletop (Chinese sprangletop; [28]): 0 (Herbicidal rate of 5% or less (almost no effect))
- herbicidal effect on E: rice flat sedge (rice flat sedge; [28]): 3 (Herbicidal rate of 40% or more and less than 70%)
- F: southern crabgrass, herbicidal effect rating (southern crabgrass [2]; [28]): 0 (Herbicidal rate of 5% or less (almost no effect))
- G: green foxtail, herbicidal effect rating (green foxtail [3]; [28]): 0 (Herbicidal rate of 5% or less (almost no effect))
- H: barnyard grass, herbicidal effect rating (barnyard grass [4]; [28]): 0 (Herbicidal rate of 5% or less (almost no effect))
- I: wild oat, herbicidal effect rating (wild oat [5]; [28]): 0 (Herbicidal rate of 5% or less (almost no effect))
- J: blackgrass, herbicidal effect rating (blackgrass [6]; [28]): 0 (Herbicidal rate of 5% or less (almost no effect))
- K: Italian ryegrass, herbicidal effect rating (Italian ryegrass [7]; [28]): 0 (Herbicidal rate of 5% or less (almost no effect))
- L: windgrass, herbicidal effect rating (windgrass [8]; [28]): 0 (Herbicidal rate of 5% or less (almost no effect))
- M: velvetleaf, herbicidal effect rating (velvetleaf [9]; [28]): 0 (Herbicidal rate of 5% or less (almost no effect))
- N: redroot pigweed, herbicidal effect rating (redroot pigweed [10]; [28]): 4 (Herbicidal rate of 70% or more and less than 90%)
- O: lambsquarters, herbicidal effect rating (lambsquarters [11]; [28]): 0 (Herbicidal rate of 5% or less (almost no effect))
- P: chickweed, herbicidal effect rating (chickweed [12]; [28]): 5 (Herbicidal rate of 90% or more (almost completely withered))
- R: persian speedwell, herbicidal effect rating (persian speedwell [13]; [28]): 5 (Herbicidal rate of 90% or more (almost completely withered))
- herbicidal effect on F: southern crabgrass (criteria 0-5) (southern crabgrass [14]; foliage application, 221 g/ha): 0 (Herbicidal rate of 5% or less (almost no effect))
- herbicidal effect on G: green foxtail (criteria 0-5) (green foxtail [15]; foliage application, 221 g/ha): 4 (Herbicidal rate of 70% or more and less than 90%)
- herbicidal effect on H: barnyard grass (criteria 0-5) (barnyard grass [16]; foliage application, 221 g/ha): 4 (Herbicidal rate of 70% or more and less than 90%)
- herbicidal effect on I: wild oat (criteria 0-5) (wild oat [17]; foliage application, 221 g/ha): 3 (Herbicidal rate of 40% or more and less than 70%)
- herbicidal effect on J: blackgrass (criteria 0-5) (blackgrass [18]; foliage application, 221 g/ha): 3 (Herbicidal rate of 40% or more and less than 70%)
- herbicidal effect on K: Italian ryegrass (criteria 0-5) (Italian ryegrass [19]; foliage application, 221 g/ha): 4 (Herbicidal rate of 70% or more and less than 90%)
- herbicidal effect on L: windgrass (criteria 0-5) (windgrass [20]; foliage application, 221 g/ha): 0 (Herbicidal rate of 5% or less (almost no effect))
- herbicidal effect on M: velvetleaf (criteria 0-5) (velvetleaf [21]; foliage application, 221 g/ha): 2 (Herbicidal rate of 20% or more and less than 40%)
- herbicidal effect on N: redroot pigweed (criteria 0-5) (redroot pigweed [22]; foliage application, 221 g/ha): 5 (Herbicidal rate of 90% or more (almost completely withered))
- herbicidal effect on O: lambsquarters (criteria 0-5) (lambsquarters [23]; foliage application, 221 g/ha): 3 (Herbicidal rate of 40% or more and less than 70%)
- herbicidal effect on P: chickweed (criteria 0-5) (chickweed [24]; foliage application, 221 g/ha): 5 (Herbicidal rate of 90% or more (almost completely withered))
- herbicidal effect on R: persian speedwell (criteria 0-5) (persian speedwell [25]; foliage application, 221 g/ha): 5 (Herbicidal rate of 90% or more (almost completely withered))
